Values quoted from earlier work in patent US20090004049A1, “Method of irradiation using process of adding vitamin C” (priority 2007, published 2009).

Test system: patients with cancer
Details: 10 g of vitamin C administered to patients with cancer

O=C1O[C@H]([C@@H](O)CO)C(O)=C1O [vitamin C]
increase of survival rate of patients compared with control: 4 times
